Values quoted from earlier work, collected in US20060009642A1, “Methods for the synthesis of substituted purines” (IRM LLC, a Delaware Limited Liability Company, priority 2001, published 2006).

System: cyclin-dependent kinase 1 (CDK1)
Details: binds to the ATP-binding site; Arris et al., J. Med. Chem. 43, 2797 (2000)

Structure (SMILES): Nc1nc(OCC2CCCCC2)c2[nH]cnc2n1 [O6-cyclohexylmethylguanine]
- inhibition of CDK1, mode of inhibition: competitive inhibitor
